# Laboratory results as given in ChEMBL document CHEMBL1127159, “Preparation and biological evaluation of -fluoromethyl--methylene--butyrolactone and -butyrolactam” (Bioorg Med Chem Lett, 1993).
# Legend:
# Assay type in all cases: functional, cell-based
# SK-MEL-28 = experiment: The compound was evaluated for antitumoral activity against human melanoma cell line P36 after 72 hr of incubation; conditions: SK-MEL-28, 72 h
# SW480 = experiment: The compound was evaluated for antitumoral activity against human cancer cell line SW480 after 72 hr of incubation; conditions: SW480, 72 h
# T-24 = experiment: The compound was evaluated for antitumoral activity against human cancer cell line T24 after 72 hr of incubation; conditions: T-24, 72 h
# L1210/C = experiment: The compound was evaluated for antitumoral activity against mouse leukemia cell line L1210/c after 72 hr of incubation; conditions: L1210, 72 h
# CCRF-CEM = experiment: The compound was evaluated for antitumoral activity against human leukemia cell line CCRF CEM after 72 hr of incubation
SMILES,IC50 (SK-MEL-28),IC50 (SW480),IC50 (T-24),IC50 (L1210/C),IC50 (CCRF-CEM)
C=C1CC(C(F)F)OC1=O (stereo not given),2 µg/mL,4 µg/mL,0.5 µg/mL,3 µg/mL,4 µg/mL
O=c1[nH]cc(F)c(=O)[nH]1 [FLUOROURACIL],11 µg/mL,6 µg/mL,6 µg/mL,0.2 µg/mL,4 µg/mL
